Measurements published in patent publication US20190134005A1 (BioMarin Pharmaceutical Inc., priority 2016, published 2019).

Each compound was assayed against T1, human CGT (Homo sapiens, UniProt Q16880) (assay: Assay 1: CGT Enzymatic Assay (RapidFire/MS/MS, 0.01% Tween 80)). Conditions: Table 1, Compounds of Formula (I) and Formula (II); CGT enzymatic assay, C6-NBD-dihydro-galactosylceramide readout; read-out: IC50.
T1 sequence (Q16880 21-541): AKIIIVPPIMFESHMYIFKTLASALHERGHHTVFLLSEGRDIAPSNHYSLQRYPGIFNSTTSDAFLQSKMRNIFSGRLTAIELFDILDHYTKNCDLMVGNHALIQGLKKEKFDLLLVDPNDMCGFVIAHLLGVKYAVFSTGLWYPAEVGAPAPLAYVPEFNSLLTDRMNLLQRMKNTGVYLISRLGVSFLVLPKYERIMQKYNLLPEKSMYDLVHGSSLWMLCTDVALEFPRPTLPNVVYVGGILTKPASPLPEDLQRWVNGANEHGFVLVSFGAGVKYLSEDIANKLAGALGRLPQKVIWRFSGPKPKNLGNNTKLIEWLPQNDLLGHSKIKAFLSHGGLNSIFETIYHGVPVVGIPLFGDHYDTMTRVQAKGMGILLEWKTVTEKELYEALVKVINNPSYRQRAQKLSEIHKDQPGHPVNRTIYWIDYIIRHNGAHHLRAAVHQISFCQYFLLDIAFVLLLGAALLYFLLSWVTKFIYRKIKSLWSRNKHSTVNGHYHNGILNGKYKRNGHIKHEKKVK
Assay type: biochemical

For `O=C1N(c2ccccc2)C2(CCC2)C(O)(c2cccc(OC(F)(F)F)c2)N1c1ccc(Cl)cc1` (stereo not drawn) [Example 334, 7-(4-chlorophenyl)-8-hydroxy-5-phenyl-8-(3-(trifluoromethoxy)phenyl)-5,7-diazaspiro[3.4]octan-6-one], which IC50 is on record?
The IC50 was less than 1 µM.

Which IC50 does the source give for `O=C1N(c2ccc(Cl)cc2)C2(CCC2)C(O)(c2cccc(OC(F)(F)F)c2)N1c1ccccc1` (stereo not drawn) [Example 332, 5-(4-chlorophenyl)-8-hydroxy-7-phenyl-8-(3-(trifluoromethoxy)phenyl)-5,7-diazaspiro[3.4]octan-6-one] here?
The IC50 was less than 1 µM.

`N#Cc1ccc(N2C(=O)N(c3ccccc3)C3(CCC3)C2(O)c2cccc(OC(F)(F)F)c2)cc1` (stereo not drawn) [Example 335, 4-(8-hydroxy-6-oxo-5-phenyl-8-(3-(trifluoromethoxy)phenyl)-5,7-diazaspiro[3.4]octan-7-yl)benzonitrile] was tested. Which IC50 did it give?
Its IC50 is less than 1 µM.

For `O=C1N(c2ccc(Cl)cc2)C2(CC(F)(F)C2)C(O)(c2cccc(OC(F)(F)F)c2)N1c1ccc(Cl)cc1` (stereo not drawn) [Compound 304, 5,7-bis(4-chlorophenyl)-2,2-difluoro-8-hydroxy-8-(3-(trifluoromethoxy)phenyl)-5,7-diazaspiro[3.4]octan-6-one], which IC50 is on record?
The IC50 was less than 1 µM.

Which IC50 does the source give for `Cc1ccc(N2C(=O)N(c3ccc(Cl)cc3)C(O)(c3cccc(OC(F)(F)F)c3)C2(C)C)cc1` (stereo not drawn) [Example 318, 1-(4-chlorophenyl)-5-hydroxy-4,4-dimethyl-3-(p-tolyl)-5-(3-(trifluoromethoxy)phenyl)imidazolidin-2-one] here?
The IC50 was less than 1 µM.

Same assay, conditions: Table 1, Compounds of Formula (I) and Formula (II); CGT enzymatic assay; read-out: IC50

`N#Cc1cccc(C2(O)CN(c3ccc(Cl)cc3)C(=O)N2c2ccc(Cl)cc2)c1` (stereo not drawn) [Compound 63, 3-(1,3-bis(4-chlorophenyl)-4-hydroxy-2-oxoimidazolidin-4-yl)benzonitrile] was tested. Which IC50 did it give?
The IC50 was less than 1 µM.

With `O=C1N(c2ccc(Br)cc2)CC(O)(c2cc3ccccc3s2)N1c1ccc(Br)cc1` (stereo not drawn) [Example 8, 4-(benzo[b]thiophen-2-yl)-1,3-bis(4-bromophenyl)-4-hydroxyimidazolidin-2-one] as the compound, how does the IC50 read?
Its IC50 is 50 to 100 µM.

`C#Cc1cccc(C2(O)C(C)N(c3ccc(Cl)cc3)C(=O)N2c2ccc(Cl)cc2)c1` (stereo not drawn) [Compound 93, 1,3-bis(4-chlorophenyl)-4-(3-ethynylphenyl)-4-hydroxy-5-methylimidazolidin-2-one] was tested. Which IC50 did it give?
Its IC50 is less than 1 µM.

How did the IC50 turn out when `CC(C)C1(c2cccc(OC(F)(F)F)c2)C(O)N(c2ccc(Cl)cc2)C(=O)N1c1ccc(Cl)cc1` (stereo not drawn) [Example 220, 1,3-bis(4-chlorophenyl)-5-hydroxy-4-isopropyl-4-(3-(trifluoromethoxy)phenyl)imidazolidin-2-one] was run?
Its IC50 is less than 1 µM.

`O=C1N(c2ccc(Cl)cc2)CC(O)(c2ccccc2)N1c1ccc(Cl)cc1` (stereo not drawn) [Example 12, 1,3-bis(4-chlorophenyl)-4-hydroxy-4-phenylimidazolidin-2-one] was tested. Which IC50 did it give?
Its IC50 is 1 to 10 µM.

For `CC(C)c1c(-c2cccc(C#N)c2)n(-c2ccc(Cl)cc2)c(=O)n1-c1ccc(Cl)cc1` [Example 44, 3-(1,3-bis(4-chlorophenyl)-5-isopropyl-2-oxo-2,3-dihydro-1H-imidazol-4-yl)benzonitrile], which IC50 is on record?
Its IC50 is less than 1 µM.

How did the IC50 turn out when `Cc1cccc(N2C(=O)N(c3cccc(C)c3)C(O)(c3cccc(OC(F)(F)F)c3)C2C)c1` (stereo not drawn) [Compound 107, 4-hydroxy-5-methyl-1,3-di-m-tolyl-4-(3-(trifluoromethoxy)phenyl)imidazolidin-2-one] was run?
The IC50 was less than 1 µM.

How did the IC50 turn out when `CC1N(c2ccc(Br)cc2)C(=O)N(c2ccc(Br)cc2)C1(O)c1cccc(OC(F)(F)F)c1` (stereo not drawn) [Compound 66, 1,3-bis(4-bromophenyl)-4-hydroxy-5-methyl-4-(3-(trifluoromethoxy)phenyl)imidazolidin-2-one] was run?
The IC50 was less than 1 µM.

Which IC50 does the source give for `Cc1c(-c2cccc(C(C)O)c2)n(-c2ccc(Cl)cc2)c(=O)n1-c1ccc(Cl)cc1` (stereo not drawn) [Example 37, 1,3-bis(4-chlorophenyl)-4-(3-(1-hydroxyethyl)phenyl)-5-methyl-1,3-dihydro-2H-imidazol-2-one] here?
The IC50 was 1 to 10 µM.

For `CCC[C@@H]1N(c2ccc(Br)cc2)C(=O)N(c2ccc(Br)cc2)C1(O)c1cccc(Cl)c1` (stereo partly drawn) [Compound 119-1, (5S)-1,3-bis(4-bromophenyl)-4-(3-chlorophenyl)-4-hydroxy-5-propylimidazolidin-2-one], which IC50 is on record?
The IC50 was less than 1 µM.

How did the IC50 turn out when `CC1(C)N(c2ccc(Cl)cc2)C(=O)N(c2ccc(Cl)cc2)C1(O)c1cccc(C(F)(F)F)c1` (stereo not drawn) [Compound 134, 1,3-bis(4-chlorophenyl)-4-hydroxy-5,5-dimethyl-4-(3-(trifluoromethyl)phenyl)imidazolidin-2-one] was run?
Its IC50 is less than 1 µM.

For `COC[C@H]1N(c2ccc(Cl)cc2)C(=O)N(c2ccc(Cl)cc2)C1(O)c1cccc(OC(F)F)c1` (stereo partly drawn) [Compound 238-2, (5R)-1,3-bis(4-chlorophenyl)-4-(3-(difluoromethoxy)phenyl)-4-hydroxy-5-(methoxymethyl)imidazolidin-2-one], which IC50 is on record?
Its IC50 is less than 1 µM.

For `CC1(c2cccc(C(F)(F)F)c2)C(O)N(c2ccc(Cl)cc2)C(=O)N1c1ccc(Cl)cc1` (stereo not drawn) [Example 190, 1,3-bis(4-chlorophenyl)-5-hydroxy-4-methyl-4-(3-(trifluoromethyl)phenyl)imidazolidin-2-one], which IC50 is on record?
Its IC50 is less than 1 µM.

How did the IC50 turn out when `CC1(c2ccccc2)N(c2ccc(Cl)cc2)C(=O)N(c2ccc(Cl)cc2)C1(O)c1ccccc1` (stereo not drawn) [Compound 121, 1,3-bis(4-chlorophenyl)-4-hydroxy-5-methyl-4,5-diphenylimidazolidin-2-one] was run?
Its IC50 is 1 to 10 µM.

Which IC50 does the source give for `CC(C)[C@H]1N(c2ccc(C(F)(F)F)cc2)C(=O)N(c2ccc(C(F)(F)F)cc2)C1(O)c1cccc(OC(F)(F)F)c1` (single isomer, unassigned) [Example 196-2] here?
Its IC50 is less than 1 µM.

For `CN(C)C[C@@H]1N(c2ccc(Cl)cc2)C(=O)N(c2ccc(Cl)cc2)C1(O)c1cccc(OC(F)(F)F)c1` (single isomer, unassigned) [Example 166-1], which IC50 is on record?
Its IC50 is less than 1 µM.

How did the IC50 turn out when `CCC1(C)N(c2ccc(Cl)cc2)C(=O)N(c2ccc(Cl)cc2)C1(O)c1cccc(OC(F)(F)F)c1` (stereo not drawn) [Example 163, 1,3-bis(4-chlorophenyl)-4-ethyl-5-hydroxy-4-methyl-5-(3-(trifluoromethoxy)phenyl)imidazolidin-2-one] was run?
Its IC50 is less than 1 µM.

Which IC50 does the source give for `C[C@@H]1N(c2ccccc2)C(=O)N(c2ccccc2)C1(O)c1cccc(OC(F)(F)F)c1` (stereo partly drawn) [Example 230-1, (5S)-4-hydroxy-5-methyl-1,3-diphenyl-4-(3-(trifluoromethoxy)phenyl)imidazolidin-2-one] here?
Its IC50 is 1 to 10 µM.

With `CC[C@]1(C)N(c2ccc(Cl)cc2)C(=O)N(c2ccc(Cl)cc2)C1(O)c1cccc(OC(F)(F)F)c1` (single isomer, unassigned) [Example 163-2] as the compound, how does the IC50 read?
The IC50 was less than 1 µM.

Which IC50 does the source give for `Cc1ccc(N2C(=O)N(c3ccc(C)cc3)C(O)(c3cccc(OC(F)(F)F)c3)C23CCC3)cc1` (stereo not drawn) [Compound 239, 8-hydroxy-5,7-di-p-tolyl-8-(3-(trifluoromethoxy)phenyl)-5,7-diazaspiro[3.4]octan-6-one] here?
Its IC50 is less than 1 µM.

Which IC50 does the source give for `CCc1c(-c2cccc(OC(F)(F)F)c2)n(-c2ccc(Cl)cc2)c(=O)n1-c1ccc(Cl)cc1` [Compound 247, 1,3-bis(4-chlorophenyl)-4-ethyl-5-(3-(trifluoromethoxy)phenyl)-1,3-dihydro-2H-imidazol-2-one] here?
Its IC50 is less than 1 µM.

With `O=C1N(c2ccc(Br)cc2)C(=O)C(O)(c2ccccc2)N1c1ccc(Br)cc1` (stereo not drawn) [Compound 141, 1,3-bis(4-bromophenyl)-5-hydroxy-5-phenylimidazolidine-2,4-dione] as the compound, how does the IC50 read?
Its IC50 is 10 to 50 µM.

For `CCC[C@@H]1N(c2ccc(Cl)cc2)C(=O)N(c2ccc(Cl)cc2)C1(O)c1cccc(C(F)(F)F)c1` (single isomer, unassigned) [Compound 87-1], which IC50 is on record?
The IC50 was less than 1 µM.

`COC(=O)C1(O)[C@H](C)N(c2ccc(Br)cc2)C(=O)N1c1ccc(Br)cc1` (single isomer, unassigned) [Compound 84-1] was tested. Which IC50 did it give?
Its IC50 is greater than 50 µM.

`CC1N(c2ccc(Br)cc2)C(=O)N(c2ccc(Br)cc2)C1(O)c1cccc(Cl)c1` (stereo not drawn) [Compound 73, 1,3-bis(4-bromophenyl)-4-(3-chlorophenyl)-4-hydroxy-5-methylimidazolidin-2-one] was tested. Which IC50 did it give?
The IC50 was less than 1 µM.

Which IC50 does the source give for `COC(=O)C1(O)[C@@H](C)N(c2ccc(Br)cc2)C(=O)N1c1ccc(Br)cc1` (single isomer, unassigned) [Compound 84-2] here?
Its IC50 is greater than 50 µM.

Which IC50 does the source give for `C[C@H]1N(c2ccc(Cl)cc2)C(=O)N(c2ccc(Cl)cc2)C1(O)c1cccc(Br)c1` (stereo partly drawn) [Compound 94-2, (5R)-4-(3-bromophenyl)-1,3-bis(4-chlorophenyl)-4-hydroxy-5-methylimidazolidin-2-one] here?
Its IC50 is less than 1 µM.

`CC1(c2cccc(Cl)c2)C(O)N(c2ccc(Cl)cc2)C(=O)N1c1ccc(Cl)cc1` (stereo not drawn) [Compound 149, 4-(3-chlorophenyl)-1,3-bis(4-chlorophenyl)-5-hydroxy-4-methylimidazolidin-2-one] was tested. Which IC50 did it give?
Its IC50 is less than 1 µM.

How did the IC50 turn out when `Cc1cc(C)cc(C2(O)CN(c3ccc(Br)cc3)C(=O)N2c2ccc(Br)cc2)c1` (stereo not drawn) [Example 33, 1,3-bis(4-bromophenyl)-4-(3,5-dimethylphenyl)-4-hydroxyimidazolidin-2-one] was run?
Its IC50 is 10 to 50 µM.

Which IC50 does the source give for `O=C1N(c2ccc(Cl)cc2)[C@@]2(CCOC2)[C@](O)(c2cccc(OC(F)(F)F)c2)N1c1ccc(Cl)cc1` [Compound 234-3, (4R,5R)-1,3-bis(4-chlorophenyl)-4-hydroxy-4-(3-(trifluoromethoxy)phenyl)-7-oxa-1,3-diazaspiro[4.4]nonan-2-one] here?
The IC50 was less than 1 µM.

Which IC50 does the source give for `O=C1N(c2ccc(Cl)cc2)C2(CC(F)C2)C(O)(c2cccc(OC(F)(F)F)c2)N1c1ccc(Cl)cc1` (stereo not drawn) [Compound 240, 5,7-bis(4-chlorophenyl)-2-fluoro-8-hydroxy-8-(3-(trifluoromethoxy)phenyl)-5,7-diazaspiro[3.4]octan-6-one] here?
Its IC50 is less than 1 µM.
